Measured values as given in US20090246212A1, “DEVELOPMENT OF METHOD FOR SCREENING FOR DRUG CAPABLE OF IMPROVING PRODUCTION OF REGULATORY T CELLS AND METHOD FOR PRODUCING REGULATORY T CELLS USING IMMUNOSUPPRESSIVE MACROLIDE ANTIBIOTIC” (KYOTO UNIVERSITY, priority 2005, published 2009).

How the values were obtained:
IgE-like antibody = details: in vivo; cited from earlier work
[1] = system: adjuvant-induced arthritis model; details: model of rheumatoid arthritis; cited from earlier work
[2] = system: CD45RA^+CD25^−CD4^+ T cell line; test: Suppression assay ([^3H] thymidine uptake) of the rapamycin-cultured CD45RA^+CD25^−CD4^+ T cell line; format: cell-based, human; details: then 2 days without rapamycin
Protocol: CD45RA^+CD25^+CD4^+ T cells or CD45RA^+CD25^−CD4^+ T cells (5×10̂4 cells/well) separated as described above were stimulated with anti-human CD3 and CD28 conjugate beads in a ratio of 4 beads per cell in a 96-well round-bottomed culture plate containing 200 μl per well of a proliferation medium (AlyS505N (produced by Cell Science & Technology Institute) supplemented with 2% human AB serum) in the presence of human IL-2 (1000 U/ml, produced by Cell Science & Technology Institute). Rapamycin (20 nM, produced by Sigma) was added as appropriate. Every 3 to 4 days, half of the medium was replaced with a fresh proliferation medium containing IL-2. If necessary, the cells were separated and repeatedly re-stimulated with anti-CD3/CD28 antibody conjugated beads every 10 to 14 days. […]
The indicated number of CD45RA^+CD25^+CD4^+ T cells just isolated from human peripheral blood, expanded CD45RA^+CD25^+CD4^+ T cell lines, or expanded CD45RA^+CD25^−CD4^+ T cell line, alone or along with self responder CD4^+ T cells (5×10̂4 cells/well), were stimulated with radiated (40 Gy) allogenic PBMC (1×10̂5 cells/well) in a round-bottomed 96-well microplate containing a proliferation medium. […] Subsequently, the cells were recovered, and [^3H] thymidine uptake was measured using 1450 Microbeta TriLux (Wallac).

mouse CD4^+ T = details: cited from earlier work
[3] = system: CD45RA^+CD25^−CD4^+ T cells; test: FACS phenotype analysis of the T cell line from CD45RA^+CD25^−CD4^+ T cells cultured with rapamycin; format: cell-based, human; details: rapamycin 20 nM from day 40, collected day 50
Protocol: (§1) PBMC derived from the subjects, or expanded T cell line were incubated with various antibodies for 30 min at 4° C. in the dark, washed, and analyzed using a BD FACSAria cell sorter and a FACSDiVA software (Becton Dickinson). The antibodies used were perCP-conjugated anti-CD4 mAb, biotin-conjugated anti-CD25 mAb, FITC-conjugated anti-CD45RA mAb, PE-conjugated anti-CD45RB mAb, anti-CD45RO mAb, anti-CD62L mAb, anti-CD38 mAb, anti-GITR mAb, and anti-TNFRII mAb. For intracellular staining with CTLA-4, the cells were subjected to cell surface staining, fixation, and permeabilization with Cytofix/Cytoperm solution (Becton Dickinson), and then intracellularly stained with PE-conjugated anti-CTLA-4.
(§2) CD45RA^+CD25^+CD4^+ T cells or CD45RA^+CD25^−CD4^+ T cells in human peripheral blood separated in the same manner as Example 1 (5×10̂4 cells/well) were stimulated with anti-human CD3 and CD28 conjugate beads in a ratio of 4 beads per cell in a 96-well round-bottomed culture plate containing 200 μl per well of a proliferation medium (AlyS505N (produced by Cell Science & Technology Institute) supplemented with 2% human AB serum) in the presence of human IL-2 (1000 U/ml, produced by Cell Science & Technology Institute). Rapamycin (20 nM, produced by Sigma) was added to the medium 0 or 40 days after the start of cultivation. Every 3 to 4 days, half of the medium was replaced with a fresh proliferation medium containing IL-2. If necessary, the cells were separated and repeatedly re-stimulated with anti-CD3/CD28 antibody conjugate beads every 10 to 14 days. Fifty days after the start of cultivation, the cells were collected and used for FACS analysis.
(§3) Expanded T cell lines were incubated with various antibodies for 30 minutes at 4° C. in the dark, washed, and analyzed using BD FACSAria cell sorter and FACSDiVA software (Becton Dickinson). The antibodies and staining conditions used were the same as Example 1.

[4] = used alone or in combination with picibanil; cited from earlier work
[5] = system: CD45RA^+CD25^+CD4^+ T cells; test: FACS phenotype analysis of the T cell line from CD45RA^+CD25^+CD4^+ T cells cultured with rapamycin; format: cell-based, human
Protocol: as §1, §2, §3

[6] = system: CD45RA^+CD25^−CD4^+ T cells; test: Expansion culture of CD45RA^+CD25^−CD4^+ T cells with anti-CD3/CD28 beads and IL-2, rapamycin added; format: cell-based, human
Protocol: (§4) Venous blood was obtained from healthy volunteers (human). Peripheral blood mononuclear cell (PBMC) was isolated by Ficoll-Hypaque (Amersham Biosciences-Uppsala) density gradient centrifugation. The cells were stained with allophycocyanin (APC)-conjugated anti-CD4 monoclonal antibody (mAb), phycoerythrin (PE)-conjugated anti-CD25 mAb, and fluorescein isothiocyanate (FITC)-conjugated anti-CD45RA mAb for 30 min at 4° C. in the dark, after which the following six different cell fractions were isolated using a BD FACSAria cell sorter (Becton Dickinson)(see FIG. 1A).
(§5) CD45RA^+CD25^+CD4^+ T cells or CD45RA^+CD25^−CD4^+ T cells (5×10̂4 cells/well) separated as described above were stimulated with anti-human CD3 and CD28 conjugate beads in a ratio of 4 beads per cell in a 96-well round-bottomed culture plate containing 200 μl per well of a proliferation medium (AlyS505N (produced by Cell Science & Technology Institute) supplemented with 2% human AB serum) in the presence of human IL-2 (1000 U/ml, produced by Cell Science & Technology Institute). Rapamycin (20 nM, produced by Sigma) was added as appropriate. Every 3 to 4 days, half of the medium was replaced with a fresh proliferation medium containing IL-2. If necessary, the cells were separated and repeatedly re-stimulated with anti-CD3/CD28 antibody conjugated beads every 10 to 14 days. Two days before functional assay, the anti-CD3/CD28 antibody conjugated beads were removed magnetically, and the cells were cultured along with 100 U/ml IL-2 in the absence of rapamycin. After 3 times of washing, the cells were used for functional assay.

[7] = system: CD45RA^+CD25^+CD4^+ T cells; test: Expansion culture of CD45RA^+CD25^+CD4^+ T cells with anti-CD3/CD28 beads and IL-2, rapamycin added; format: cell-based, human; details: for increase of cell number in the culture product: 50 days after start
Protocol: as §4, §5

[8] = stimulated in the presence of rapamycin
[9] = rapamycin 20 nM from day 40, collected day 50

CO[C@H]1C[C@@H]2CC[C@@H](C)[C@@](O)(O2)C(=O)C(=O)N2CCCC[C@H]2C(=O)O[C@H]([C@H](C)C[C@@H]2CC[C@@H](O)[C@H](OC)C2)CC(=O)[C@H](C)/C=C(\C)[C@@H](O)[C@@H](OC)C(=O)[C@H](C)C[C@H](C)/C=C/C=C/C=C/1C [rapamycin]
formation of IgE-like antibody (IgE-like antibody): effectively inhibited
efficacy in adjuvant-induced arthritis model [1]: effective
T cell line's effect on proliferation of CD4^+ T cells in response to alloantigen-presenting cells ([2]; rapamycin added day 19, about 35 days after start): strongly suppressed
T cell line's effect on proliferation of CD4^+ T cells in response to alloantigen-presenting cells ([2]; rapamycin from day 0, about 35 days culture): strongly suppressed
CD4^+CD25^+FOXP3^+ regulatory T cells (mouse CD4^+ T; mouse CD4^+ T stimulated with an antigen in the presence of rapamycin): expanded selectively
expression of FOXP3 in CD4^+CD25^− T cells (mouse CD4^+ T; [8]): did not enhance
proliferation of isolated CD4^+CD25^+ T cells (mouse CD4^+ T; [8]): proliferated vigorously
suppressive function of the T cell population produced from CD4^+CD25^+ T cells (mouse CD4^+ T; [8]): having suppressive function
suppressive function of the T cell population produced from CD4^+CD25^− T cells (mouse CD4^+ T; [8]): without suppressive function
CD25 expression relative to CD45RA^−CD25^high+CD4^+ T cells in peripheral blood [3]: about ⅕
CD45RA expression intensity relative to CD45RA^+CD25^−CD4^+ T cells at the start of cultivation [3]: about 1 time
CD45RO phenotype of the T cell line [3]: negative
CD62L expression relative to CD45RA^−CD25^high+CD4^+ T cells in peripheral blood [3]: about ⅓
GITR / CTLA4 / CD45RB phenotype of the T cell line [3]: GITR^+CTLA4^+CD45RB^high+
antitumor activity [4]: possess antitumor activity
CD45RO phenotype of the T cell line ([5]; rapamycin 20 nM from day 0, collected day 50): negative
CD25 expression relative to CD45RA^−CD25^high+CD4^+ T cells in peripheral blood [5, 9]: about 0.8 times
CD45RA expression relative to CD45RA^+CD25^+CD4^+ T cells in peripheral blood [5, 9]: about ⅙
CD45RB expression relative to CD45RA^−CD25^high+CD4^+ T cells in peripheral blood [5, 9]: about 4 times
CD45RO expression relative to CD45RA^−CD25^high+CD4^+ T cells in peripheral blood [5, 9]: about 1/50
CD62L expression relative to CD45RA^−CD25^high+CD4^+ T cells in peripheral blood [5, 9]: about ⅙
GITR / CTLA4 phenotype of the T cell line [5, 9]: GITR^+CTLA4^+
influence on the proliferation of the T cell line ([6]; rapamycin 20 nM added 19 days after start of cultivation): almost no influence
proliferation of CD45RA^+CD25^−CD4^+ T cells ([6]; rapamycin 20 nM from the start of cultivation, compared with cultivation in the absence of rapamycin): slightly suppressed
increase of cell number in the culture product ([6]; rapamycin 20 nM from the start of cultivation, about 35 days after start): about 700 times
increase of cell number in the culture product ([7]; rapamycin 20 nM added 7 days after start): about 60 times
proliferation of the CD45RA^+CD25^+CD4^+ T cell line ([7]; rapamycin 20 nM added 7 days or 39 days after start of cultivation): suppressed after the time of addition
increase of cell number in the culture product ([7]; rapamycin 20 nM added 39 days after start): about 700 times
proliferation of CD45RA^+CD25^+CD4^+ T cells ([7]; rapamycin 20 nM added from the start of cultivation): suppressed
increase of cell number in the culture product ([7]; rapamycin 20 nM added from the start of cultivation (day 0)): about 20 times
